In patent US20090234019A1, “T Type Calcium Channel Inhibitors” (priority 2004, published 2009):
Read-outs that look alike come from different tables or passages of the source. Each block holds one compound with its values, some of them ahead of it.

What was measured:
Jurkat cells [1] = assay: Inhibition of proliferation of Jurkat cells; type: cell-based, human; settings: Homo sapiens
Protocol: (§1) Cancer cell lines were obtained from the American Type Culture Collection (Manassas, Va.). Cell lines were maintained in RPMI1640 supplemented with glutamine and 5% fetal bovine serum containing SerXtend (Irvine Scientific) when appropriate insulin, as directed by the ATCC. The fetal bovine serum used for culture was heat-inactivated by maintaining the serum at 56° C. for 1 h. Cell lines used were a T celleukemia (Jurkat), prostate cancer (PC3, DU145, LNCAP), breast cancer (MDA468, MDA361, MCF7), pancreatic cancer (MIA PaCa2), liver cancer (Hep G2), lung cancer (A549, NCl H460), colon cancer (HT29, HCT 116), and ovarian cancer (SK-OV-3).
(§2) LNCaP cells at 2.5×10^4 cells/well or PC-3 cells at 5×10^4 cells/well, both in a final volume of […], were plated in triplicate in standard flat-bottomed 96-well tissue culture plates in the presence of drug or vehicle (DMSO). Unless otherwise indicated, cells were grown for 48 h at 37° C. in a CO2 incubator. Relative cell growth was determined with the CellTiter 96 aqueous cell proliferation assay (Promega, Madison, Wis.) as described by the manufacturer using an automated plate reader. Results were calculated in a blinded fashion and are the means of triplicate determinations.

Jurkat cells [2] = assay: Inhibition of calcium entry into Jurkat cells (indo-1 fluorescence); type: cell-based, human; settings: Homo sapiens
Protocol: Cells were incubated in growth media containing 1 uM of the acetoxy-methyl ester of the Ca2+-sensitive fluorescent dye indo-1 (indo-1/AM; Molecular Probes, Eugene, Oreg.) for 1 h at 37° C. Cells were washed three times in buffer A [10 mM HEPES (pH 7.4), 1 mM MgCl2, 3 mM KCl, 1 mM CaCl2, 140 mM NaCl, 0.1% glucose, and 1% fetal bovine serum] and suspended to a final concentration of 10^6 cells/ml. Before stimulation, cells were warmed to 37° C. Changes in [Ca2+]i were monitored in an SLM […] spectrofluorimeter (SLM/Aminco; Urbana, Ill.) using previously published methods ([…]., Szabo, G., and Gray, L. S. 1996. A voltage operable current is involved in activation-induced Ca^2+ entry in human lymphocytes whereas ICRAC has no apparent role. Am. J. Physiol. 271:[…]., and Gray, L. S. 1998. Calmodulin regulation of Ca^2+ entry in Jurkat T cells. Cell Calcium 23:361-368).

PC3 cells = assay: Inhibition of proliferation of PC3 cells; type: cell-based, human; settings: Homo sapiens, PC-3, PC3, read-out: prolif: IC50 for inhibition of proliferation, PC3
Protocol: as §1, §2

LNCaP cells [3] = assay: Inhibition of proliferation of LNCaP cells; type: cell-based; settings: Homo sapiens, read-out: prolif: IC50 for inhibition of proliferation, LNCaP
Protocol: as §1, §2

MDA-361 cells [4] = assay: Inhibition of proliferation of MDA-361 cells; type: cell-based; settings: MDA361, NE = no effect at highest concentration of drug tested, read-out: prolif: IC50 for inhibition of proliferation, MDA-361
Protocol: as §1, §2

MDA-231 cells [5] = assay: Inhibition of proliferation of MDA-231 cells; type: cell-based; settings: Homo sapiens, read-out: prolif: IC50 for inhibition of proliferation, MDA-231
MDA-435 cells [6] = assay: Inhibition of proliferation of MDA-435 cells; type: cell-based; settings: read-out: prolif: IC50 for inhibition of proliferation, MDA-435
MDA-231 cells [7] = assay: Inhibition of calcium entry into MDA-231 cells; type: cell-based; settings: Homo sapiens, MDA-MB-231, NE = no effect at highest concentration of drug tested, read-out: Ca2+: IC50 for inhibition of calcium entry, MDA-231
Protocol: (§3) Cells were incubated in growth media containing 1 uM of the acetoxy-methyl ester of the Ca2+-sensitive fluorescent dye indo-1 (indo-1/AM; Molecular Probes, Eugene, Oreg.) for 1 h at 37° C. Cells were washed three times in buffer A [10 mM HEPES (pH 7.4), 1 mM MgCl2, 3 mM KCl, 1 mM CaCl2, 140 mM NaCl, 0.1% glucose, and 1% fetal bovine serum] and suspended to a final concentration of 10^6 cells/ml. Before stimulation, cells were warmed to 37° C. Changes in [Ca2+]i were monitored in an SLM 8100C spectrofluorimeter (SLM/Aminco; Urbana, Ill.) using previously published methods (Densmore, J. J., Haverstick, D. M., Szabo, G., and Gray, L. S. 1996. A voltage operable current is involved in activation-induced Ca^2+ entry in human lymphocytes whereas ICRAC has no apparent role. Am. J. Physiol. 271:C1494-C1503; Haverstick, D. M., Densmore, J. J., and Gray, L. S. 1998. Calmodulin regulation of Ca^2+ entry in Jurkat T cells. Cell Calcium 23:361-368).

MDA-361 cells [8] = assay: Inhibition of calcium entry into MDA-361 cells; type: cell-based; settings: MDA361, NE = no effect at highest concentration of drug tested, read-out: Ca2+: IC50 for inhibition of calcium entry, MDA-361
Protocol: as §3

LNCaP cells [9] = assay: Inhibition of calcium entry into LNCaP cells; type: cell-based; settings: Homo sapiens, NE = no effect at highest concentration of drug tested, read-out: Ca2+: IC50 for inhibition of calcium entry, LNCaP
Protocol: as §3

MDA-435 cells [10] = assay: Inhibition of calcium entry into MDA-435 cells; type: cell-based; settings: MDA435, NE = no effect at highest concentration of drug tested, read-out: Ca2+: IC50 for inhibition of calcium entry, MDA-435
Protocol: as §3

[11] = Jurkat cell line, Tables 1 and 2, unit inferred, read-out: IC50 for inhibition of proliferation
[12] = Jurkat cell line, Tables 1 and 2, unit inferred, read-out: IC50 for inhibition of Ca^2+ entry
[13] = Jurkat, NE = no effect at highest concentration of drug tested, read-out: prolif: IC50 for inhibition of proliferation, Jurkat
[14] = NE = no effect at highest concentration of drug tested
[15] = MDA-MB-231, NE = no effect at highest concentration of drug tested
[16] = Jurkat, NE = no effect at highest concentration of drug tested, read-out: Ca2+: IC50 for inhibition of calcium entry, Jurkat
[17] = MDA435, NE = no effect at highest concentration of drug tested

Compound: O=c1[nH]c2ccccc2n1C1CCN(CCCC(c2ccc(F)cc2)c2ccc(F)cc2)CC1 [Pimozide]
- IC50 (Jurkat cells [1]; [11]): > 100 µM
- IC50 (Jurkat cells [2]; [12]): > 100 µM

Compound: CCC(=O)c1ccc2c(c1)N(CC(C)N(C)C)c1ccccc1S2 (centres unmarked) [Propiomazine]
- IC50 (Jurkat cells [1]; [11]): 30 µM
- IC50 (Jurkat cells [2]; [12]): 30 µM

Compound: CC(CN1c2ccccc2Sc2ccccc21)N(C)C (centres unmarked) [Promethazine]
- IC50 (Jurkat cells [1]; [11]): 4 µM
- IC50 (Jurkat cells [2]; [12]): 60 µM

Compound: C1CCC(C(CC2CCCCN2)C2CCCCC2)CC1 (centres unmarked) [Perhexiline]
- IC50 (Jurkat cells [1]; [11]): 10 µM
- IC50 (Jurkat cells [2]; [12]): 5 µM

Compound: CC(NC(C)(C)C)C(=O)c1cccc(Cl)c1 (centres unmarked) [Bupropion]
- IC50 (Jurkat cells [1]; [11]): > 100 µM
- IC50 (Jurkat cells [2]; [12]): > 100 µM

Compound: CN1CCN(C(c2ccccc2)c2ccc(Cl)cc2)CC1 (centres unmarked) [Chlorcyclizine]
- IC50 (Jurkat cells [1]; [11]): 90 µM
- IC50 (Jurkat cells [2]; [12]): 25 µM

Compound: CC(C)COCC(CN(Cc1ccccc1)c1ccccc1)N1CCCC1 (centres unmarked) [Bepridil]
- IC50 (Jurkat cells [1]; [11]): 10 µM
- IC50 (Jurkat cells [2]; [12]): 5 µM

Compound: CN(C)CCCN1c2ccccc2Sc2ccccc21 [Promazine]
- IC50 (Jurkat cells [1]; [11]): 30 µM
- IC50 (Jurkat cells [2]; [12]): 10 µM

Compound: CC(NCCC(c1ccccc1)c1ccccc1)c1ccccc1 (centres unmarked) [Fendiline]
- IC50 (Jurkat cells [1]; [11]): 30 µM
- IC50 (Jurkat cells [2]; [12]): 10 µM

Compound: COc1ccc2c(c1)N(C[C@H](C)CN(C)C)c1ccccc1S2 [Methotrimeprazine]
- IC50 (Jurkat cells [1]; [11]): 30 µM
- IC50 (Jurkat cells [2]; [12]): 10 µM

More lines, main results first:

- IC50 (PC3 cells; mM): > 1 mM
- IC50 (LNCaP cells [3]; mM): > 1 mM
- IC50 (Jurkat cells [1]; [13]): > 300 µM
Compound: COc1ccc(CCNc2ccccc2COC(c2ccccc2)c2ccc(Cl)cc2)cc1 (centres unmarked) [Compound 3.10]
- IC50 (MDA-361 cells [4]): ~70 µM
- IC50 (MDA-231 cells [5]; MDA-MB-231, mM): > 1 mM
- IC50 (MDA-435 cells [6]; MDA435, mM): > 1 mM

- IC50 (PC3 cells; [14]): 0.014 mM
- IC50 (LNCaP cells [3]; [14]): 0.0033 mM
- IC50 (Jurkat cells [1]; [13]): 5.4 µM
- IC50 (Jurkat cells [2]; [16]): 3.3 µM
- IC50 (MDA-231 cells [7]): 20 µM
- IC50 (MDA-361 cells [8]): 10 µM
Compound: COc1ccc(CNCc2ccccc2COC(c2ccccc2)c2ccc(Cl)cc2)cc1 (centres unmarked) [Compound 3.11]
- IC50 (MDA-361 cells [4]): 8.5 µM
- IC50 (MDA-231 cells [5]; [15]): 0.0116 mM
- IC50 (MDA-435 cells [6]; [17]): 0.022 mM

- IC50 (PC3 cells; [14]): > 0.1 mM
- IC50 (LNCaP cells [3]; [14]): 0.042 mM
- IC50 (Jurkat cells [1]; [13]): 70 µM
- IC50 (Jurkat cells [2]; [16]): 60 µM
- IC50 (MDA-231 cells [7]): 100 µM
Compound: COc1ccc(CCCNCCCC(c2ccccc2)c2ccc(Cl)cc2)cc1 (centres unmarked) [Compound 3.3]
- IC50 (MDA-231 cells [5]; [15]): > 0.1 mM
- IC50 (MDA-435 cells [6]; [17]): > 0.1 mM

- IC50 (PC3 cells; [14]): > 0.1 mM
- IC50 (LNCaP cells [3]; [14]): > 0.1 mM
- IC50 (LNCaP cells [9]): 30 µM
- IC50 (Jurkat cells [1]; [13]): > 100 µM
- IC50 (MDA-435 cells [10]): 30 µM
- IC50 (Jurkat cells [2]; [16]): 30 µM
- IC50 (MDA-231 cells [7]): 30 µM
Compound: COc1ccc(NCCCCCCC(c2ccccc2)c2ccc(Cl)cc2)cc1 (centres unmarked) [Compound 3.17]
- IC50 (MDA-231 cells [5]; [15]): > 0.1 mM
- IC50 (MDA-435 cells [6]; [17]): > 0.1 mM

- IC50 (PC3 cells; [14]): 0.055 mM
- IC50 (LNCaP cells [3]; [14]): 0.033 mM
- IC50 (LNCaP cells [9]): 10 µM
- IC50 (Jurkat cells [1]; [13]): 23 µM
- IC50 (Jurkat cells [2]; [16]): 30 µM
Compound: COc1ccc(CC[N+](C)(C)CCOC(c2ccccc2)c2ccc(Cl)cc2)cc1 (centres unmarked) [Compound 3.16]
- IC50 (MDA-361 cells [4]): 8 µM
- IC50 (MDA-231 cells [5]; [15]): 0.021 mM
- IC50 (MDA-435 cells [6]; [17]): 0.05 mM
